Experiments:
[1] = biological target: Delta-type opioid receptor (Homo sapiens) (UniProt P41143); details: Compound concentration 10.0 uM
[2] = biological target: Non-receptor tyrosine-protein kinase TYK2 (Homo sapiens) (UniProt P29597); details: Compound concentration 1000.0 nM
[3] = biological target: Kappa-type opioid receptor (Homo sapiens) (UniProt P41145); details: Compound concentration 10.0 uM
[4] = biological target: NUAK family SNF1-like kinase 2 (Homo sapiens) (UniProt Q9H093); details: Compound concentration 1000.0 nM
[5] = biological target: Mitogen-activated protein kinase kinase kinase 7 (Homo sapiens) (UniProt O43318); details: Compound concentration 1000.0 nM
[6] = biological target: Receptor-type tyrosine-protein kinase FLT3 (Homo sapiens) (UniProt P36888); details: Compound concentration 1000.0 nM
[7] = biological target: Serine/threonine-protein kinase SIK2 (Homo sapiens) (UniProt Q9H0K1); details: Compound concentration 1000.0 nM
[8] = biological target: Cyclin-dependent kinase-like 1 (Homo sapiens) (UniProt Q00532); details: Compound concentration 1000.0 nM
[9] = biological target: Proto-oncogene tyrosine-protein kinase Src (Homo sapiens) (UniProt P12931); details: Compound concentration 1000.0 nM
[10] = biological target: Dual specificity mitogen-activated protein kinase kinase 3 (Homo sapiens) (UniProt P46734); details: Compound concentration 1000.0 nM
[11] = biological target: Casein kinase I isoform epsilon (Homo sapiens) (UniProt P49674); details: Compound concentration 1000.0 nM
[12] = test system: Receptor-type tyrosine-protein kinase FLT3 (Homo sapiens), P36888 [UNDEFINED MUTATION]; details: Compound concentration 1000.0 nM
[13] = biological target: Serine/threonine-protein kinase MARK2 (Homo sapiens) (UniProt Q7KZI7); details: Compound concentration 1000.0 nM
[14] = biological target: Serine/threonine-protein kinase NLK (Homo sapiens) (UniProt Q9UBE8); details: Compound concentration 1000.0 nM
[15] = biological target: Maternal embryonic leucine zipper kinase (Homo sapiens) (UniProt Q14680); details: Compound concentration 1000.0 nM
[16] = biological target: Ribosomal protein S6 kinase alpha-2 (Homo sapiens) (UniProt Q15349); details: Compound concentration 1000.0 nM
[17] = biological target: Serine/threonine-protein kinase Nek11 (Homo sapiens) (UniProt Q8NG66); details: Compound concentration 1000.0 nM
[18] = biological target: 5-hydroxytryptamine receptor 3A (Homo sapiens) (UniProt P46098); details: Compound concentration 10.0 uM
[19] = biological target: Fibroblast growth factor receptor 2 (Homo sapiens) (UniProt P21802); details: Compound concentration 1000.0 nM
[20] = biological target: Receptor-type tyrosine-protein kinase FLT3 (Homo sapiens) (UniProt P36888); details: Compound concentration 1000.0 nM; remark: listed apart in the source
[21] = biological target: 3-phosphoinositide-dependent protein kinase 1 (Homo sapiens) (UniProt O15530); details: Compound concentration 1000.0 nM
[22] = biological target: Casein kinase I isoform gamma-2 (Homo sapiens) (UniProt P78368); details: Compound concentration 1000.0 nM
[23] = biological target: Receptor tyrosine-protein kinase erbB-3 (Homo sapiens) (UniProt P21860); details: Compound concentration 1000.0 nM
[24] = biological target: Calcium/calmodulin-dependent protein kinase type II subunit beta (Homo sapiens) (UniProt Q13554); details: Compound concentration 1000.0 nM
[25] = biological target: Dual specificity protein kinase CLK2 (Homo sapiens) (UniProt P49760); details: Compound concentration 1000.0 nM
[26] = test system: Phosphatidylinositol 4,5-bisphosphate 3-kinase catalytic subunit alpha isoform (Homo sapiens), P42336 [I800L]; details: Compound concentration 1000.0 nM
[27] = biological target: Serine/threonine-protein kinase STK11 (Homo sapiens) (UniProt Q15831); details: Compound concentration 1000.0 nM
[28] = biological target: Ribosomal protein S6 kinase alpha-5 (Homo sapiens) (UniProt O75582); details: Compound concentration 1000.0 nM
[29] = biological target: Tyrosine-protein kinase receptor UFO (Homo sapiens) (UniProt P30530); details: Compound concentration 1000.0 nM
[30] = biological target: Serine/threonine-protein kinase D2 (Homo sapiens) (UniProt Q9BZL6); details: Compound concentration 1000.0 nM
[31] = biological target: LIM domain kinase 1 (Homo sapiens) (UniProt P53667); details: Compound concentration 1000.0 nM
[32] = biological target: Tyrosine-protein kinase JAK1 (Homo sapiens) (UniProt P23458); details: Compound concentration 1000.0 nM
[33] = biological target: Serine/threonine-protein kinase TAO3 (Homo sapiens) (UniProt Q9H2K8); details: Compound concentration 1000.0 nM
[34] = biological target: Cyclin-dependent kinase 5 (Homo sapiens) (UniProt Q00535); details: Compound concentration 1000.0 nM
[35] = biological target: Mitogen-activated protein kinase kinase kinase kinase 4 (Homo sapiens) (UniProt O95819); details: Compound concentration 1000.0 nM
[36] = biological target: Dual specificity mitogen-activated protein kinase kinase 4 (Homo sapiens) (UniProt P45985); details: Compound concentration 1000.0 nM
[37] = biological target: Serine/threonine-protein kinase MRCK beta (Homo sapiens) (UniProt Q9Y5S2); details: Compound concentration 1000.0 nM
[38] = biological target: G protein-coupled receptor kinase 3 (Homo sapiens) (UniProt P35626); details: Compound concentration 1000.0 nM
[39] = test system: Tyrosine-protein kinase ABL1 (Homo sapiens), P00519 [F317I]; details: Compound concentration 1000.0 nM
[40] = biological target: Ephrin type-A receptor 3 (Homo sapiens) (UniProt P29320); details: Compound concentration 1000.0 nM
[41] = biological target: Activin receptor type-2B (Homo sapiens) (UniProt Q13705); details: Compound concentration 1000.0 nM
[42] = biological target: D(3) dopamine receptor (Homo sapiens) (UniProt P35462); details: Compound concentration 10.0 uM
[43] = biological target: Casein kinase II subunit alpha' (Homo sapiens) (UniProt P19784); details: Compound concentration 1000.0 nM
[44] = biological target: Serine/threonine-protein kinase 3 (Homo sapiens) (UniProt Q13188); details: Compound concentration 1000.0 nM
[45] = biological target: BDNF/NT-3 growth factors receptor (Homo sapiens) (UniProt Q16620); details: Compound concentration 1000.0 nM

Receptor-type tyrosine-protein kinase FLT3 (Homo sapiens), sequence (P36888 whole entry): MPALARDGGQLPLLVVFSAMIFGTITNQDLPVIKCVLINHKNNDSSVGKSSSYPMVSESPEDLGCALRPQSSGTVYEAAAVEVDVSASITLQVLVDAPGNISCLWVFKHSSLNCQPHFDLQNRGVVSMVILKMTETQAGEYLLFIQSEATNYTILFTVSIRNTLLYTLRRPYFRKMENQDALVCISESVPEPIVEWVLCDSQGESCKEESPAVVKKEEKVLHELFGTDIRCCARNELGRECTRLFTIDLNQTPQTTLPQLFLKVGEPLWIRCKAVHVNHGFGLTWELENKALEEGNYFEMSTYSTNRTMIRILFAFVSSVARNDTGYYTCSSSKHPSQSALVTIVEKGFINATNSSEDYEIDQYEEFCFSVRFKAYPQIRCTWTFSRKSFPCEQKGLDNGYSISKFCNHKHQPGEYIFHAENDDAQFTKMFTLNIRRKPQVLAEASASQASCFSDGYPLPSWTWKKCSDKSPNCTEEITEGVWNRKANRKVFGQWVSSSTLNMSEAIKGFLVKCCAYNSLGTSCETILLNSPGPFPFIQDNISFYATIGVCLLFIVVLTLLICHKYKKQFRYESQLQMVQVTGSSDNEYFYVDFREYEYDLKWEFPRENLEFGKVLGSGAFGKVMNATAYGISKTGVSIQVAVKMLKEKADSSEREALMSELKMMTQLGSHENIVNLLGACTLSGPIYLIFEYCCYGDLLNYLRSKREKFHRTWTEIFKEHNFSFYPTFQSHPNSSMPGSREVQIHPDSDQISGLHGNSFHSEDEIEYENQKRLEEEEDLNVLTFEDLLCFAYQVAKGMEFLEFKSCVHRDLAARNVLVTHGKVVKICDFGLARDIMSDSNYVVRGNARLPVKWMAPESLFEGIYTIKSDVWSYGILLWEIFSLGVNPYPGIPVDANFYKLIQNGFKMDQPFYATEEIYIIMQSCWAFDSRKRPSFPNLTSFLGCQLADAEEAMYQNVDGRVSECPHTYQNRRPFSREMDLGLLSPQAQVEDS
Ribosomal protein S6 kinase alpha-5 (Homo sapiens), sequence (O75582 whole entry, looked up): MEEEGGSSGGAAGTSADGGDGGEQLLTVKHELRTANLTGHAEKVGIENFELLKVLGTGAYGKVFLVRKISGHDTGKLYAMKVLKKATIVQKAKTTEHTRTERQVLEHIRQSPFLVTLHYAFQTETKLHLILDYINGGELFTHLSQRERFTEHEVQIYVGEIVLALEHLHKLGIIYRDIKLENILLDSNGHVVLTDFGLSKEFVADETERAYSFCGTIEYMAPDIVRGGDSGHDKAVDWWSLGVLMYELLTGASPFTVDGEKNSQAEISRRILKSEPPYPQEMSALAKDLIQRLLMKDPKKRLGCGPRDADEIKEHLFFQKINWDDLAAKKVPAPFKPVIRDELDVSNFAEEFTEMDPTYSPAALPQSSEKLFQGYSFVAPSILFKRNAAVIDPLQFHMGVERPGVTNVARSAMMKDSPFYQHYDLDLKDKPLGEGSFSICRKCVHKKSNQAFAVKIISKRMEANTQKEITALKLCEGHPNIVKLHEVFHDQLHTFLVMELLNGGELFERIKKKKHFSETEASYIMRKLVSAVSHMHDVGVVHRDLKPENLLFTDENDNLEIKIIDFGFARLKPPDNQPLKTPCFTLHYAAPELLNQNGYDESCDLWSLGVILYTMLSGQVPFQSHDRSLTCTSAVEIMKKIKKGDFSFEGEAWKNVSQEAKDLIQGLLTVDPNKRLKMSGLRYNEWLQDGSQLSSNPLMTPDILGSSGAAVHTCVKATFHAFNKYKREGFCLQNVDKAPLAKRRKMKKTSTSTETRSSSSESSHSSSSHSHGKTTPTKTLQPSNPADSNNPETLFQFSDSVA
Dual specificity protein kinase CLK2 (Homo sapiens), sequence (P49760 whole entry, looked up, canonical isoform): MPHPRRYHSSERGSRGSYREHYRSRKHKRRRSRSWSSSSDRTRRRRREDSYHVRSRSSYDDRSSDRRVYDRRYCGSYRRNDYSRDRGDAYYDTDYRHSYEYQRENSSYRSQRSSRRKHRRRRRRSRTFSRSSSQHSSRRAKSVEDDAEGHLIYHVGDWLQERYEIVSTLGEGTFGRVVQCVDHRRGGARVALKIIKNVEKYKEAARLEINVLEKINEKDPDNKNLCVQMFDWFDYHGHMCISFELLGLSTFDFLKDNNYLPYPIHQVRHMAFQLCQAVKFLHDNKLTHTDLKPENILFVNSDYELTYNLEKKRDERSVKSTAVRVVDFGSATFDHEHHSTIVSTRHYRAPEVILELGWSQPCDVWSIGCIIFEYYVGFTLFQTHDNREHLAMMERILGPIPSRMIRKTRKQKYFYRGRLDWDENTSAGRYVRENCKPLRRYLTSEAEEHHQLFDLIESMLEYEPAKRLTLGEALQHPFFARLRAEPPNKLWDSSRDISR
Dual specificity mitogen-activated protein kinase kinase 4 (Homo sapiens), sequence (P45985 whole entry): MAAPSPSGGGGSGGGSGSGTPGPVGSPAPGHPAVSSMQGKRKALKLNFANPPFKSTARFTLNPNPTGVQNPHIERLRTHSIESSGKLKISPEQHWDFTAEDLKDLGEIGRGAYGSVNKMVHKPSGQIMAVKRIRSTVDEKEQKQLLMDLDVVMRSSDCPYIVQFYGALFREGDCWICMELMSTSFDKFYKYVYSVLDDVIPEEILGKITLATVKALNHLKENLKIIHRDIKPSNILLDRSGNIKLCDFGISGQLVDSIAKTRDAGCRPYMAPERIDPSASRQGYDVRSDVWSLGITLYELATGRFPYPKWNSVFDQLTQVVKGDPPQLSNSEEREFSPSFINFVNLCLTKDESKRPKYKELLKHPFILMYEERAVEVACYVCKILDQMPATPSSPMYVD
D(3) dopamine receptor (Homo sapiens), sequence (P35462 whole entry): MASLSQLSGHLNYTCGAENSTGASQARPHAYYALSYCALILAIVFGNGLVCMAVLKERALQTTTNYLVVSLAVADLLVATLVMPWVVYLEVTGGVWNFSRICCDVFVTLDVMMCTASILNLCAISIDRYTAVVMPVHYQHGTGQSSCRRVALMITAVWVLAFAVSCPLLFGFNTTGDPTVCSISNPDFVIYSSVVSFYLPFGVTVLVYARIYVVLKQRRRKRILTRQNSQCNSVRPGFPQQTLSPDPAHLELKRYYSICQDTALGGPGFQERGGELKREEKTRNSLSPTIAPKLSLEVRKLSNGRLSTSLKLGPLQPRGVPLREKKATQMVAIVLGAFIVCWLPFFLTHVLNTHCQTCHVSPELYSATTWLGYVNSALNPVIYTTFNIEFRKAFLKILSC
Proto-oncogene tyrosine-protein kinase Src (Homo sapiens), sequence (P12931 2-536 limits assumed): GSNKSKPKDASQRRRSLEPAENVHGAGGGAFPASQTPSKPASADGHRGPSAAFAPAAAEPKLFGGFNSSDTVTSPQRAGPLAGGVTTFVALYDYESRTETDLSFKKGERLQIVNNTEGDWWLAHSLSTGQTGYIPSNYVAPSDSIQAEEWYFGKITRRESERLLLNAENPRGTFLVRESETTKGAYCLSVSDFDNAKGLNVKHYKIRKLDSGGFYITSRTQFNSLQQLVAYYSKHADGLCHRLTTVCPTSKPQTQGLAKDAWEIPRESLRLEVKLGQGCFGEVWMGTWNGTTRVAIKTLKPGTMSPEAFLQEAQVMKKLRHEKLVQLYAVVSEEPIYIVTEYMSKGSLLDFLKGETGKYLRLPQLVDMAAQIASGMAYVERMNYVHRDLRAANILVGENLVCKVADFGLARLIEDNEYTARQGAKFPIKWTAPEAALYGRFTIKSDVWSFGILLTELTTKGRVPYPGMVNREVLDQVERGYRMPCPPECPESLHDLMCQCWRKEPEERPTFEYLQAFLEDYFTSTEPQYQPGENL
Mitogen-activated protein kinase kinase kinase kinase 4 (Homo sapiens), sequence (O95819 2-1239 limits assumed): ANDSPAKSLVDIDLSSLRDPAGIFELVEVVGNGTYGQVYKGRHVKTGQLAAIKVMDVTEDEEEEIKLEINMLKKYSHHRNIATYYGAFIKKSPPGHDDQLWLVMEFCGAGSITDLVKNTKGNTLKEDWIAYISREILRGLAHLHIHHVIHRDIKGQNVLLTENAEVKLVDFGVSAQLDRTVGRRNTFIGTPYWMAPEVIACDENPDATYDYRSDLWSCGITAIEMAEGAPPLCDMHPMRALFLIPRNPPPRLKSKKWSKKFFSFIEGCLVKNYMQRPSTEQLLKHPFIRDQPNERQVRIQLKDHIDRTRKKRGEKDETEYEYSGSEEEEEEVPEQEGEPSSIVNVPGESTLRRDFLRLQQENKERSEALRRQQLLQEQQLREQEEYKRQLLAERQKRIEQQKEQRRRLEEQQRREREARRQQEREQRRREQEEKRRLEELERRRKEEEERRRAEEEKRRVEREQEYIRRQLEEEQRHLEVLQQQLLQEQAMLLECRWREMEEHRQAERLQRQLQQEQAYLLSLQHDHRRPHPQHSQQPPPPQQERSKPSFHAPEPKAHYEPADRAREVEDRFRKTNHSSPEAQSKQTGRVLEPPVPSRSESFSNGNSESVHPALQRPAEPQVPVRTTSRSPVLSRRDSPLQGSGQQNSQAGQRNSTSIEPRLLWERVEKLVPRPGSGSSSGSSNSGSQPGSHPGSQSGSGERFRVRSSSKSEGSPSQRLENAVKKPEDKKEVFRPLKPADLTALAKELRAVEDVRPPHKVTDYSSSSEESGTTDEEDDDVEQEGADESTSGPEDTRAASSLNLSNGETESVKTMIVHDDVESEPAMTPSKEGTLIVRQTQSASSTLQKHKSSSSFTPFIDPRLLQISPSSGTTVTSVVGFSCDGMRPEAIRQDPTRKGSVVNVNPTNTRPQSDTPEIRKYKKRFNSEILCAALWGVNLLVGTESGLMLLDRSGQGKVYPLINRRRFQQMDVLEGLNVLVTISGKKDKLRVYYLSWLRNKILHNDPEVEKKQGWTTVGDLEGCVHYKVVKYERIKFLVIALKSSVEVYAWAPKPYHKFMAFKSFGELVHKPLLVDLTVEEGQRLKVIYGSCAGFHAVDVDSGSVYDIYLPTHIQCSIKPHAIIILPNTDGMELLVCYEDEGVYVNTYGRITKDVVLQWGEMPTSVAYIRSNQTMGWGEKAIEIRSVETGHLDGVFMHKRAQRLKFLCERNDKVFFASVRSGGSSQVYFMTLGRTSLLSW
Receptor-type tyrosine-protein kinase FLT3 (Homo sapiens), P36888 [UNDEFINED MUTATION], sequence (P36888 whole entry, looked up, change not shown): as the sequence (P36888 whole entry) above

## O=c1nc(-c2ccccn2)sc2ccccc12 [BTZO-1]
[1]
  inhibition: 4.81%
[2]
  residual activity: 98%
[3]
  inhibition: 1.65%
[4]
  residual activity: 100%
[5]
  residual activity: 78%
[6]
  residual activity: 98%
[7]
  residual activity: 86%
[8]
  residual activity: 87%
[9]
  residual activity: 92%
[10]
  residual activity: 75%
[11]
  residual activity: 88%
[12]
  residual activity: 81%
[13]
  residual activity: 78%
[14]
  residual activity: 100%
[15]
  residual activity: 82%
[16]
  residual activity: 100%
[17]
  residual activity: 100%
[18]
  inhibition: 17.2%
[19]
  residual activity: 100%
[20]
  residual activity: 93%
[21]
  residual activity: 100%
[22]
  residual activity: 74%
[23]
  residual activity: 83%
[24]
  residual activity: 100%
[25]
  residual activity: 80%
[26]
  residual activity: 84%
[27]
  residual activity: 79%
[28]
  residual activity: 94%
[29]
  residual activity: 100%
[30]
  residual activity: 97%
[31]
  residual activity: 84%
[32]
  residual activity: 71%
[33]
  residual activity: 73%
[34]
  residual activity: 85%
[35]
  residual activity: 100%
[36]
  residual activity: 100%
[37]
  residual activity: 100%
[38]
  residual activity: 51%
[39]
  residual activity: 91%
[40]
  residual activity: 87%
[41]
  residual activity: 100%
[42]
  inhibition: 13.6%
[43]
  residual activity: 92%
[44]
  residual activity: 94%
[45]
  residual activity: 96%

## O=C1NC(c2ccccn2)Sc2ccccc21 (stereo not given) [BTZO-4]
[1]
  inhibition: -0.624%
[2]
  residual activity: 86%
[3]
  inhibition: 4.68%
[4]
  residual activity: 100%
[5]
  residual activity: 99%
[6]
  residual activity: 92%
[7]
  residual activity: 96%
[8]
  residual activity: 75%
[9]
  residual activity: 85%
[10]
  residual activity: 81%
[11]
  residual activity: 98%
[12]
  residual activity: 83%
[13]
  residual activity: 92%
[14]
  residual activity: 100%
[15]
  residual activity: 81%
[16]
  residual activity: 97%
[17]
  residual activity: 95%
[18]
  inhibition: -1.17%
[19]
  residual activity: 100%
[20]
  residual activity: 77%
[21]
  residual activity: 97%
[22]
  residual activity: 88%
[23]
  residual activity: 88%
[24]
  residual activity: 100%
[25]
  residual activity: 95%
[26]
  residual activity: 80%
[27]
  residual activity: 87%
[28]
  residual activity: 95%
[29]
  residual activity: 92%
[30]
  residual activity: 96%
[31]
  residual activity: 78%
[32]
  residual activity: 68%
[33]
  residual activity: 77%
[34]
  residual activity: 86%
[35]
  residual activity: 100%
[36]
  residual activity: 93%
[37]
  residual activity: 100%
[38]
  residual activity: 42%
[39]
  residual activity: 88%
[40]
  residual activity: 100%
[41]
  residual activity: 100%
[42]
  inhibition: 27.8%
[43]
  residual activity: 100%
[44]
  residual activity: 100%
[45]
  residual activity: 87%

— ChEMBL document CHEMBL4507329, “Data for DCP probe BTZO-1” (2021)
